Entries after “also recorded” stand apart in the source; their conditions may differ.
B1: R-spondin1: a potent WNT agonist (protein, UniProt Q2MKA7 21-263, looked up)
R-spondin-1: SRGIKGKRQRRISAEGSQACAKGCELCSEVNGCLKCSPKLFILLERNDIRQVGVCLPSCPPGYFDARNPDMNKCIKCKIEHCEACFSHNFCTKCKEGLYLHKGRCYPACPEGSSAANGTMECSSPAQCEMSEWSPWGPCSKKQQLCGFRRGSEERTRRVLHAPVGDHAACSDTKETRRCTVRRVPCPEGQKRRKGGQGRRENANRNLARKESKEAGAGSRRRKGQQQQQQQGTVGPLTSAGPA

Experiments:
[1] = test system: Paneth cells in ENR+CD organoids; assay: Flow cytometry of 3D-cultured intestinal organoids, Paneth cells (lysozyme-positive, CD24-positive); type: cell-based, mouse; settings: 160 nM KPT-8602 or 2 ng/mL Leptomycin B, ENR+CD 6 days
From the text: Flow cytometry analysis (3D culture). ISC-enriched organoids cultured in 3D Matrigel with ENRCV media were passaged to 24-well plate in 3D Matrigel with ENRCV. At day zero, media were replaced to ENRCD with or without indicated compounds, and media were replaced every other day. At day six, cells were washed with basal media, and then harvested from Matrigel by mechanical disruption in TrypLE Express (ThermoFisher, 12605010) to remove Matrigel and dissociate organoids to single cells. After vigorous pipetting and incubation at 37° C. for 20 min, dissociated organoids were strained through a 35 μm cell strainer into a tube (Falcon, 352235). […] Cell pellets were resuspended in FACS buffer (2% FBS in PBS), and then transferred to an ultra low-bind 96-well plate (Corning, 7007). Cells were stained with Zombie-violet viability dye (BioLegend, 423107) at 100× for viability staining and/or antibody staining solution. FITC-conjugated antibody for lysozyme (Dako, F0372) and APC-conjugated antibody for CD24 (BioLegend, 138505) were used at 100× dilution. Flow cytometry was performed using an LSR Fortessa (BD; Koch Institute Flow Cytometry Core at MIT). The data were analyzed using FlowJo v10 software.
The results of primary and secondary screening reflect a mixture of potential effects arising from small molecule treatment which may result in increases in total LYZ secretion. This includes contributions from enhanced Paneth cell differentiation, altered Paneth cell activity and changes in total cell number concurrent with differentiation. To better inform how the 6 compounds identified in the screen increased total secreted LYZ, and to isolate only those which enhance Paneth differentiation robustly, Applicants next utilized flow cytometry to measure the changes in Paneth cell representation within the treated organoids. […] Single live cells were selected by several gating strategies and Paneth cells were identified as lysozyme-high, CD24-mid, side scatter-high (SSC-high) (FIG. 27E). […] To evaluate whether the culture media supplements C and D may alter the effects of the 6 hits, Applicants also performed lysozyme assay in the canonical ENR culture condition in 3-D (because Paneth cells exist in an immature state within ENR, Applicants were unable to robustly quantify Paneth cell number via flow cytometry).
Flow cytometry. ISC-enriched organoids in 3D Matrigel culture were passaged to a 48-well plate and induced differentiation for 6 days by ENR+CD media containing DMSO or each drug indicated in the figures. DMSO- or drug-containing media were changed every other day. On day 6, cells were washed twice with basal media, then harvested from Matrigel by the mechanical disruption in TrypLE Express (Thermo, #12605010) to remove Matrigel and dissociate organoids to single cells. After vigorous pipetting and incubation at 37° C. for 15 min, the cell solution was diluted twice with basal media and centrifuged at 300 ref for 3 min. The cell pellet was resuspended in FACS buffer (PBS containing 2% FBS) and replaced into a 96-well Clear Round Bottom Ultra-Low Attachment Microplate (Corning, #7007). The cell solution was centrifuged again at 300 rcf for 3 min at 4° C. to pellet the cells. Cells were stained with Zombie-violet dye (BioLegend, #423113) at 100× for viability staining for 20 min at RT in the dark. After centrifugation for 3 min at 300 rcf, cells were fixed in fixation buffer (FACS buffer containing 1% formaldehyde (Thermo, #28906)) for 15 min on ice in the dark. Cells were centrifuged again for 3 min at 300 rcf and blocked with staining buffer (FACS buffer containing 0.5% Tween20 (Sigma, P2287)) for 15 min at RT in the dark. Pelleted cells by the centrifugation for 3 min at 300 rcf are stained with FITC-conjugated anti-lysozyme antibody (Dako, F0372) and APC-conjugated anti-CD24 antibody (Biolegend, #138505) at 100× for 45 min at RT in the dark.

[2] = test system: lysozyme (LYZ) in intestinal organoids; assay: Western blotting of lysozyme in 3D-cultured intestinal organoids; type: cell-based, mouse; settings: ENR+CV, ENR+CD or ENR, 6 days
From the text: Western blotting. ISC-enriched organoids cultured in 3D Matrigel with ENRCV media were passaged to 24-well plate in 3D Matrigel with ENRCV. At day zero, media were replaced to ENR or ENRCD with or without indicated compounds, and media were replaced every other day. At day six, cells were harvested from Matrigel by mechanical disruption and suspended in basal media. Cell pellets were lysed with Pierce® IP lysis buffer (ThermoFisher, 87787) containing Halt™ Protease Inhibitor Cocktail, EDTA-Free (ThermoFisher, 87785) after 3-minute centrifuge at 300×g at 4° C. Cell extracts were resolved by NuPAGE® SDS-PAGE Gel system (ThermoFisher) and electroblotted onto polyvinylidene difluoride membranes using Criterion™ Blotter (Biorad). The membranes were blocked with 2% Blotting-Grade Blocker (Biorad, 1706404) in TBS-T (50 mM Tris-HCl, 150 mM NaCl, and 0.1% Tween 20, pH 8.0) and then probed with appropriate antibodies. Detection was performed using ECL Select™ Western Blotting Detection Reagent (Amersham, 45-000-999) and ImageQuant LAS4000 (GE Healthcare).
Western blotting. Organoid-containing gel was homogenized in basal medium and centrifuged at 300 rcf for 3 min. Organoid pellet was lysed with ice-cold Pierce IP Lysis Buffer (Thermo Fisher Scientific, #87787) containing Halt Protease Inhibitor Cocktail, EDTA-Free (Thermo Fisher Scientific, #87785) and incubated on ice for 20 min. The lysate was centrifuged at 17,000 rcf for 10 min, and the supernatant was combined with NuPAGE LDS Sample Buffer (Thermo Fisher Scientific, NP0007). Protein concentration was determined by Pierce 660 nm Protein Assay (Thermo Fisher Scientific, #22660) and normalized to the lowest concentration among each sample set. […] Chemiluminescent signals were detected by LAS4000 (GE Healthcare) using Amersham ECL Select Western Blotting Detection Reagent (GE Healthcare, #45-000-999), and total protein signals were obtained by Odyssey Imaging System (LI-COR Biosciences) using REVERT Total Protein Stain Kit (LI-COR Biosciences, #926-11010).

intestinal organoids = assay: Population RNA-sequencing of treated organoids; type: cell-based, mouse; settings: ENR+CV, ENR+CD or ENR
Description: Population RNA-sequencing. Population RNA-seq was performed using a derivative of the Smart-Seq2 protocol for single cells. In brief, organoid media was aspirated and RLT+BME (Qiagen) was added to each well, and plate shaken for 30 minutes to fully lyse. Lysate was aliquoted into 4 identical fractions and stored at −80° C. until reverse transcription. RNA lysate was thawed and cleaned with a 2.2×SPRI ratio using Agencourt RNAClean XP beads (Beckman Coulter, A63987). RNA-seq was performed on a bulk population of sorted basal cells using Smart-Seq2 chemistry, starting with a 2.2×SPRI ratio cleanup. After oligo-dT priming, Maxima H Minus Reverse Transcriptase (ThermoFisher EP0753) was used to synthesize cDNA with an elongation step at 52° C. before PCR amplification (15 cycles for tissue, 18 cycles for sorted basal cells) using KAPA HiFi PCR Mastermix (Kapa Biosystems KK2602). Sequencing libraries were prepared using the Nextera XT DNA tagmentation kit (Illumina FC-131-1096) with 250 pg input for each sample. Libraries were pooled post-Nextera and cleaned using Agencourt AMPure SPRI beads with successive 0.7× and 0.8× ratio SPRIs and sequenced with an Illumina 75 Cycle NextSeq500/550v2 kit (Illumina FC-404-2005) with loading density at […], with paired end 35 cycle read structure. Samples were sequenced at an average read depth of 8.44 million reads per sample and a total of 96 samples.
Organoid samples were aligned to the Mm10 genome and transcriptome using STAR and RSEM. […] For module scoring with the in vivo Paneth and enteroendocrine cell-defining genes, Applicants used previously published gene sets and computed per sample module scores through the Seurat package.

[3] = Roberts et al, 1986; cited from earlier work
[4] = Newlands et al, 1996; cited from earlier work
ISCs / Paneth cells = settings: Hayase et al., 2017; cited from earlier work

| Molecule | Paneth cell representation / proportion in organoids [1] | LYZ abundance per-mass protein (Western blot) [2] | secretory cell gene set scores (Paneth, goblet, EEC) from bulk transcripts (intestinal organoids) | Paneth cell representation / proportion in organoids ([1]; listed as leptomycin B) | tolerability in animals [3] | tolerability in humans [4] | alpha-defensin secretion and dysbiosis in mice with GvHD (ISCs / Paneth cells) |
| --- | --- | --- | --- | --- | --- | --- | --- |
| NC(=O)/C(=C/n1cnc(-c2cc(C(F)(F)F)cc(C(F)(F)F)c2)n1)c1cncnc1 [KPT-8602] | statistically significant increases in Paneth cell representation; also recorded: statistically significant increases in the Paneth cell fraction; also recorded: increased the proportion of PC | appreciably increase LYZ abundance | increase secretory cells (Paneth, goblet, and EEC) | – | – | – | – |
| CCC(=C/[C@H](C)C/C=C/C(C)=C/[C@@H](C)C(=O)[C@@H](C)[C@H](O)[C@@H](C)C/C(C)=C/C(=O)O)/C=C/[C@@H]1OC(=O)C=C[C@@H]1C [Leptomycin B] | statistically significant increases in Paneth cell representation; also recorded: statistically significant increases in the Paneth cell fraction | appreciably increase LYZ abundance | – | increased the proportion of PC | poorly tolerated with marked gastrointestinal toxicity | poorly tolerated with marked gastrointestinal toxicity | – |
| B1 | – | – | – | – | – | – | elevate the secretion of alpha-defensins and resolve dysbiosis seen in mice with GvHD |
